The values below come from ChEMBL document CHEMBL1124710, “Studies on Ca2+ channel antagonists. A 2-diazo-3,3,3-trifluoropropionamide derivative related to verapamil as a potential photoaffinity probe” (J Med Chem, 1990).

A short description of assay [1]: Binding affinity to displace 0.4 nM of [3H]- gallopamil in rat myocardial membranes. It is filed as cell membranes, Myocardium, Membrane.
The species named for a further assay is Rattus norvegicus. Description: Effective concentration for negative inotropic effect in rat myocardial ventricular strips. To be noted: Cardiac ventricle. Type of assay: functional.

For `COc1ccc(C(C#N)(CCCN(C)CCc2ccc(N(C)C(=O)C([N+]#N)C(F)(F)F)cc2)C(C)C)cc1OC` (centres undefined), the Ki (in general, a dissociation constant, usually derived from enzyme kinetics or from competition with a known ligand) in assay [1] is 0.0376 µM. For the same compound, in the assay listed under Rattus norvegicus, the EC50 (in general, the concentration at which the effect is half-maximal) stood at 0.105 µM.

For `COc1ccc(CCN(C)CCCC(C#N)(c2cc(OC)c(OC)c(OC)c2)C(C)C)cc1OC` (centres undefined) [GALLOPAMIL], the affinity in assay [1] corresponds to a Ki of 0.0155 µM. Also, in the assay filed under Rattus norvegicus, the EC50 stood at 0.0218 µM.
